Results: ChEMBL document CHEMBL3880422, “C-terminal modified oxamyl dipeptides as inhibitors of the ICE/ced-3 family of cysteine proteases” (2007)

Assays:
[1] = target: T1, Caspase-6 (Homo sapiens) (UniProt P55212); assay: (§1) Inhibition of recombinant MCH2 (unknown origin) assessed as ratio of irreversible rate constant K3 to dissociation constant of the reversible binding step Ki pre-incubated for 60 mins with Acetyl-Tyr-Val-Ala-Asp-amino-4-methylcoumarin substrate followed by enzyme addition by fluorescence based assay
T1 sequence (whole entry): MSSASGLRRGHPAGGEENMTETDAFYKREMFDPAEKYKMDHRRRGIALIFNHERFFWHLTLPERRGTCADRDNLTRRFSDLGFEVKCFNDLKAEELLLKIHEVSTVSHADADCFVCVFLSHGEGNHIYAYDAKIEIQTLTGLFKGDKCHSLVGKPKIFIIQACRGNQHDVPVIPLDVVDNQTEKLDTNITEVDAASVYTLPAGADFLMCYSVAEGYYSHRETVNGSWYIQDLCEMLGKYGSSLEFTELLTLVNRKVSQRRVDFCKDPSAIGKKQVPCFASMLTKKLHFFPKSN

[2] = target: T2, Caspase-3 (Homo sapiens) (UniProt P42574); assay: as §1, with “CPP32” for “MCH2”
T2 sequence (whole entry): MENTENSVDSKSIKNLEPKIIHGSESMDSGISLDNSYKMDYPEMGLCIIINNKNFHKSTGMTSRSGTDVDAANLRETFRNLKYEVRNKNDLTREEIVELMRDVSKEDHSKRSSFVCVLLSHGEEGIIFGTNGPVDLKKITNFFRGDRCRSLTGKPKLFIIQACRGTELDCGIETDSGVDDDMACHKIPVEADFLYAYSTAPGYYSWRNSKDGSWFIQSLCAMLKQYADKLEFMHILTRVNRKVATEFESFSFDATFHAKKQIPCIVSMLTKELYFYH

[3] = target: Caspase-8 (Homo sapiens) (UniProt Q14790); assay: Inhibition of recombinant MCH5 (unknown origin) assessed as ratio of irreversible rate constant K3 to dissociation constant of the reversible binding step Ki pre-incubated for 60 mins with Acetyl-Tyr-Val-Ala-Asp-amino-4-methylcoumarin substrate followed by enzyme addition by fluorescence based assay
Sequence of Caspase-8 (Homo sapiens) (Q14790 217-374 limits assumed): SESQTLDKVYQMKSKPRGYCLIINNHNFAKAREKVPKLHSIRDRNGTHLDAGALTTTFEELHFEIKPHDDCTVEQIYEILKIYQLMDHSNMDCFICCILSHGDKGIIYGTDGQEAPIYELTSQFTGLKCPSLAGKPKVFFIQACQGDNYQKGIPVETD
Sequence of Caspase-8 (Homo sapiens) (Q14790 385-479 limits assumed): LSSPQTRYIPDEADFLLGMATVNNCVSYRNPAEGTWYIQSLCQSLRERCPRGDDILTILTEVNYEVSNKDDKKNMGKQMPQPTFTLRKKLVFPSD

[4] = target: T3, Caspase-1 (Mus musculus) (UniProt P29452); assay: Inhibition of mouse recombinant ICE assessed as ratio of irreversible rate constant K3 to dissociation constant of the reversible binding step Ki pre-incubated for 60 mins with Acetyl-Tyr-Val-Ala-Asp-amino-4-methylcoumarin substrate followed by enzyme addition by fluorescence based assay
T3 sequence (whole entry): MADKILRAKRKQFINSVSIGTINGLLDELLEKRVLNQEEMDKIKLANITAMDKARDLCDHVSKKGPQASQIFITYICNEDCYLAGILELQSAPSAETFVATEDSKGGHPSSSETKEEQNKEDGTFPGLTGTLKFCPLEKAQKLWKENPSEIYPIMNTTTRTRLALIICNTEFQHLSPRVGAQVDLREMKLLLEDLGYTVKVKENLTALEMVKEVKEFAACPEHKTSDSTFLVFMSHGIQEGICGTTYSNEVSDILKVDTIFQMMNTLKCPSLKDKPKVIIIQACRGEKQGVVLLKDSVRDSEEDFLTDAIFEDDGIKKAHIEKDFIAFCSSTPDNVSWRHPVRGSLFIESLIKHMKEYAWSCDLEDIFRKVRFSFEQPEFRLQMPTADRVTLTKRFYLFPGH

| Ratio [1] | Ratio [2] | Ratio [3] | Ratio [4] | Structure (SMILES) |
| --- | --- | --- | --- | --- |
| 37400 M⁻¹ s⁻¹ | – | – | 879000 M⁻¹ s⁻¹ | CC(C)[C@H](NC(=O)C(=O)Nc1cccc2ccccc12)C(=O)N[C@@H](CC(=O)O)C(=O)COc1c(F)cc(F)cc1F |
| 335000 M⁻¹ s⁻¹ | 158000 M⁻¹ s⁻¹ | 1.26e+06 M⁻¹ s⁻¹ | 2.59e+06 M⁻¹ s⁻¹ | C[C@H](NC(=O)C(=O)NCc1cccc2ccccc12)C(=O)N[C@@H](CC(=O)O)C(=O)COc1c(F)c(F)cc(F)c1F |
| 97500 M⁻¹ s⁻¹ | 137000 M⁻¹ s⁻¹ | 1.79e+06 M⁻¹ s⁻¹ | 2.03e+06 M⁻¹ s⁻¹ | C[C@H](NC(=O)C(=O)NC1CCCCC1)C(=O)N[C@@H](CC(=O)O)C(=O)COP(=O)(c1ccccc1)c1ccccc1 |
| 126000 to 264000 M⁻¹ s⁻¹ | 149000 to 260000 M⁻¹ s⁻¹ | 21200 to 1.92e+06 M⁻¹ s⁻¹ | 16900 to 1.76e+07 M⁻¹ s⁻¹ | C[C@H](NC(=O)C(=O)Nc1cccc2c1CCCC2)C(=O)N[C@@H](CC(=O)O)C(=O)COC(=O)c1c(Cl)cccc1Cl |
| 42800 M⁻¹ s⁻¹ | 54300 M⁻¹ s⁻¹ | 23100 M⁻¹ s⁻¹ | 13900 M⁻¹ s⁻¹ | C[C@H](NC(=O)C(=O)NCc1ccccc1)C(=O)N[C@@H](CC(=O)O)C(=O)COc1c(F)c(F)cc(F)c1F |
| 28200 to 360000 M⁻¹ s⁻¹ | 67600 to 942000 M⁻¹ s⁻¹ | 337000 to 551000 M⁻¹ s⁻¹ | 90100 to 1.27e+06 M⁻¹ s⁻¹ | C[C@H](NC(=O)C(=O)Nc1ccccc1I)C(=O)N[C@@H](CC(=O)O)C(=O)COC(=O)c1c(Cl)cccc1Cl |
| 21100 to 143000 M⁻¹ s⁻¹ | 20500 to 165000 M⁻¹ s⁻¹ | 18700 to 92600 M⁻¹ s⁻¹ | 46000 to 126000 M⁻¹ s⁻¹ | C[C@H](NC(=O)C(=O)NC12CC3CC(CC(C3)C1)C2)C(=O)N[C@@H](CC(=O)O)C(=O)COC(=O)c1c(Cl)cccc1Cl |
| 63000 M⁻¹ s⁻¹ | 167000 M⁻¹ s⁻¹ | 286000 M⁻¹ s⁻¹ | 825000 M⁻¹ s⁻¹ | CCCOc1ccc(OCC(=O)[C@H](CC(=O)O)NC(=O)[C@@H](NC(=O)C(=O)Nc2cccc3ccccc23)C(C)C)cc1 |
| 0 M⁻¹ s⁻¹ | 43600 M⁻¹ s⁻¹ | 0 M⁻¹ s⁻¹ | 82100 M⁻¹ s⁻¹ | CC(C)[C@H](NC(=O)C(=O)Nc1cccc2ccccc12)C(=O)N[C@@H](CC(=O)O)C(=O)COc1c(-c2ccccc2)oc2ccccc2c1=O |
| 35000 M⁻¹ s⁻¹ | 55600 M⁻¹ s⁻¹ | 37800 M⁻¹ s⁻¹ | 167000 M⁻¹ s⁻¹ | C[C@H](NC(=O)C(=O)Nc1ccccc1-c1ccccc1)C(=O)N[C@@H](CC(=O)O)C(=O)COc1ccccc1F |
| 655000 M⁻¹ s⁻¹ | 1.17e+06 M⁻¹ s⁻¹ | 2.14e+06 M⁻¹ s⁻¹ | 2.02e+06 M⁻¹ s⁻¹ | C[C@H](NC(=O)C(=O)NC1CCCCC1)C(=O)N[C@@H](CC(=O)O)C(=O)COC(=O)c1c(Cl)cccc1Cl |
| 83700 M⁻¹ s⁻¹ | 180000 M⁻¹ s⁻¹ | 177000 M⁻¹ s⁻¹ | 254000 M⁻¹ s⁻¹ | CC(C)[C@H](NC(=O)C(=O)Nc1cccc2ccccc12)C(=O)N[C@@H](CC(=O)O)C(=O)COc1cccc2ccccc12 |
| 129000 M⁻¹ s⁻¹ | 68900 M⁻¹ s⁻¹ | 155000 M⁻¹ s⁻¹ | 172000 M⁻¹ s⁻¹ | C[C@H](NC(=O)C(=O)Nc1ccccc1F)C(=O)N[C@@H](CC(=O)O)C(=O)COC(=O)c1c(Cl)cccc1Cl |
| 5850 M⁻¹ s⁻¹ | 3430 M⁻¹ s⁻¹ | 154000 M⁻¹ s⁻¹ | 323000 M⁻¹ s⁻¹ | C[C@H](NC(=O)C(=O)Nc1ccccc1Cc1ccccc1)C(=O)N[C@@H](CC(=O)O)C(=O)COc1c(F)c(F)cc(F)c1F |
| 214000 M⁻¹ s⁻¹ | 187000 M⁻¹ s⁻¹ | 936000 M⁻¹ s⁻¹ | 1.16e+06 M⁻¹ s⁻¹ | C[C@H](NC(=O)C(=O)NCc1cccc2ccccc12)C(=O)N[C@@H](CC(=O)O)C(=O)COC(=O)c1c(Cl)cccc1Cl |
| 234000 M⁻¹ s⁻¹ | – | – | 1.05e+06 M⁻¹ s⁻¹ | CC(C)[C@H](NC(=O)C(=O)Nc1cccc2ccccc12)C(=O)N[C@@H](CC(=O)O)C(=O)COC(=O)c1c(Cl)cccc1Cl |

The next lines start with the molecule.

| Structure (SMILES) | Ratio [1] | Ratio [2] | Ratio [3] | Ratio [4] |
| --- | --- | --- | --- | --- |
| CC(C)[C@H](NC(=O)C(=O)NC1CCCc2ccccc21)C(=O)N[C@@H](CC(=O)O)C(=O)COc1c(F)c(F)cc(F)c1F (some centres undefined) | 160000 M⁻¹ s⁻¹ | 98600 M⁻¹ s⁻¹ | 456000 M⁻¹ s⁻¹ | 2.32e+06 M⁻¹ s⁻¹ |
| C[C@H](NC(=O)C(=O)NC12CC3CC(CC(C3)C1)C2)C(=O)N[C@@H](CC(=O)O)C(=O)COP(=O)(c1ccccc1)c1ccccc1 | 124000 to 445000 M⁻¹ s⁻¹ | 149000 to 243000 M⁻¹ s⁻¹ | 50400 to 643000 M⁻¹ s⁻¹ | 27600 to 242000 M⁻¹ s⁻¹ |
| CC(C)[C@H](NC(=O)C(=O)Nc1ccccc1Cl)C(=O)N[C@@H](CC(=O)O)C(=O)COc1c(F)c(F)cc(F)c1F | 161000 M⁻¹ s⁻¹ | 96300 M⁻¹ s⁻¹ | 234000 M⁻¹ s⁻¹ | 1.54e+06 M⁻¹ s⁻¹ |
| CC(C)[C@H](NC(=O)C(=O)Nc1ccccn1)C(=O)N[C@@H](CC(=O)O)C(=O)COc1c(F)c(F)cc(F)c1F | 11600 M⁻¹ s⁻¹ | 9850 M⁻¹ s⁻¹ | 19500 M⁻¹ s⁻¹ | 36000 M⁻¹ s⁻¹ |
| COc1ccccc1NC(=O)C(=O)N[C@H](C(=O)N[C@@H](CC(=O)O)C(=O)COc1c(F)c(F)cc(F)c1F)C(C)C | 61500 M⁻¹ s⁻¹ | 10800 M⁻¹ s⁻¹ | 2.68e+06 M⁻¹ s⁻¹ | 2.07e+06 M⁻¹ s⁻¹ |
| C[C@H](NC(=O)C(=O)Nc1ccccc1I)C(=O)N[C@@H](CC(=O)O)C(=O)COP(=O)(c1ccccc1)c1ccccc1 | 66200 M⁻¹ s⁻¹ | 78300 M⁻¹ s⁻¹ | 46300 M⁻¹ s⁻¹ | 36300 M⁻¹ s⁻¹ |
| C[C@H](NC(=O)C(=O)Nc1cccc2c1CCCC2)C(=O)N[C@@H](CC(=O)O)C(=O)COP(=O)(c1ccccc1)c1ccccc1 | 120000 to 132000 M⁻¹ s⁻¹ | 139000 to 157000 M⁻¹ s⁻¹ | 71800 to 1.15e+06 M⁻¹ s⁻¹ | 315000 to 905000 M⁻¹ s⁻¹ |
| C[C@H](NC(=O)C(=O)Nc1ccccc1-c1ccccc1)C(=O)N[C@@H](CC(=O)O)C(=O)COP(=O)(c1ccccc1)c1ccccc1 | 317000 M⁻¹ s⁻¹ | 243000 M⁻¹ s⁻¹ | 207000 M⁻¹ s⁻¹ | 345000 M⁻¹ s⁻¹ |
| C[C@H](NC(=O)C(=O)Nc1ccccc1F)C(=O)N[C@@H](CC(=O)O)C(=O)COc1c(F)c(F)cc(F)c1F | 212000 M⁻¹ s⁻¹ | 478000 M⁻¹ s⁻¹ | 170000 M⁻¹ s⁻¹ | 339000 M⁻¹ s⁻¹ |
| CC(C)[C@H](NC(=O)C(=O)Nc1c(F)c(F)nc(F)c1F)C(=O)N[C@@H](CC(=O)O)C(=O)COc1c(F)c(F)cc(F)c1F | 170000 M⁻¹ s⁻¹ | 153000 M⁻¹ s⁻¹ | 389000 M⁻¹ s⁻¹ | 1.22e+06 M⁻¹ s⁻¹ |
| CC(C)[C@H](NC(=O)C(=O)Nc1ccccc1F)C(=O)N[C@@H](CC(=O)O)C(=O)COc1c(F)c(F)cc(F)c1F | 11200 M⁻¹ s⁻¹ | 5560 M⁻¹ s⁻¹ | 49600 M⁻¹ s⁻¹ | 58500 M⁻¹ s⁻¹ |
| C[C@H](NC(=O)C(=O)Nc1cc(C(F)(F)F)ccc1N1CCOCC1)C(=O)N[C@@H](CC(=O)O)C(=O)COP(=O)(c1ccccc1)c1ccccc1 | 98500 M⁻¹ s⁻¹ | 100000 M⁻¹ s⁻¹ | 441000 M⁻¹ s⁻¹ | 369000 M⁻¹ s⁻¹ |
| CC(C)[C@H](NC(=O)C(=O)Nc1ccccc1Br)C(=O)N[C@@H](CC(=O)O)C(=O)COc1c(F)c(F)cc(F)c1F | 230000 M⁻¹ s⁻¹ | 276000 M⁻¹ s⁻¹ | 1.3e+06 M⁻¹ s⁻¹ | 1.08e+06 M⁻¹ s⁻¹ |
| CC(C)[C@H](NC(=O)C(=O)Nc1ccccc1)C(=O)N[C@@H](CC(=O)O)C(=O)COc1c(F)c(F)cc(F)c1F | 25500 M⁻¹ s⁻¹ | 36000 M⁻¹ s⁻¹ | 598000 M⁻¹ s⁻¹ | 1.49e+06 M⁻¹ s⁻¹ |
| CCCCCCCc1ccc(NC(=O)C(=O)N[C@H](C(=O)N[C@@H](CC(=O)O)C(=O)COc2c(F)c(F)cc(F)c2F)C(C)C)cc1 | 50000 M⁻¹ s⁻¹ | 11200 M⁻¹ s⁻¹ | 155000 M⁻¹ s⁻¹ | 657000 M⁻¹ s⁻¹ |
| C[C@H](NC(=O)C(=O)Nc1cc(C(C)(C)C)ccc1C(C)(C)C)C(=O)N[C@@H](CC(=O)O)C(=O)COP(=O)(c1ccccc1)c1ccccc1 | 308000 M⁻¹ s⁻¹ | 104000 M⁻¹ s⁻¹ | 1.34e+06 M⁻¹ s⁻¹ | 211000 M⁻¹ s⁻¹ |
| CC(C)[C@H](NC(=O)C(=O)Nc1c(F)cccc1F)C(=O)N[C@@H](CC(=O)O)C(=O)COc1c(F)c(F)cc(F)c1F | 1.08e+06 M⁻¹ s⁻¹ | 62900 M⁻¹ s⁻¹ | 1.83e+06 M⁻¹ s⁻¹ | 2.68e+06 M⁻¹ s⁻¹ |
| CC(C)[C@H](NC(=O)C(=O)Nc1ccccc1I)C(=O)N[C@@H](CC(=O)O)C(=O)COc1c(F)c(F)cc(F)c1F | 137000 M⁻¹ s⁻¹ | 42300 M⁻¹ s⁻¹ | 1.03e+06 M⁻¹ s⁻¹ | 1.26e+06 M⁻¹ s⁻¹ |
| CC(C)[C@H](NC(=O)C(=O)Nc1cnccn1)C(=O)N[C@@H](CC(=O)O)C(=O)COc1c(F)c(F)cc(F)c1F | 175000 M⁻¹ s⁻¹ | – | 1.83e+06 M⁻¹ s⁻¹ | 2.57e+06 M⁻¹ s⁻¹ |
| CC(C)[C@H](NC(=O)C(=O)NC12CC3CC(CC(C3)C1)C2)C(=O)N[C@@H](CC(=O)O)C(=O)COc1c(F)c(F)cc(F)c1F | 10700 M⁻¹ s⁻¹ | 6330 M⁻¹ s⁻¹ | 59900 M⁻¹ s⁻¹ | 184000 M⁻¹ s⁻¹ |
